Measured values taken from patent US20120115869A1, “TETRAZOLE DERIVATIVES” (MERCK SERONO S.A., priority 2009, published 2012).

target: T1, CRTH2 (DP2) (Homo sapiens, UniProt Q9Y5Y4); test: Radioligand binding Scintillation Proximity Assay ([3H]PGD2, hCRTH2-CHO cell membranes); details: 1.5 nM [3H]PGD2, hCRTH2-CHO cell membranes, SPA
T1 construct: host or cells: CHO cells
T1 sequence (Q9Y5Y4 1-395): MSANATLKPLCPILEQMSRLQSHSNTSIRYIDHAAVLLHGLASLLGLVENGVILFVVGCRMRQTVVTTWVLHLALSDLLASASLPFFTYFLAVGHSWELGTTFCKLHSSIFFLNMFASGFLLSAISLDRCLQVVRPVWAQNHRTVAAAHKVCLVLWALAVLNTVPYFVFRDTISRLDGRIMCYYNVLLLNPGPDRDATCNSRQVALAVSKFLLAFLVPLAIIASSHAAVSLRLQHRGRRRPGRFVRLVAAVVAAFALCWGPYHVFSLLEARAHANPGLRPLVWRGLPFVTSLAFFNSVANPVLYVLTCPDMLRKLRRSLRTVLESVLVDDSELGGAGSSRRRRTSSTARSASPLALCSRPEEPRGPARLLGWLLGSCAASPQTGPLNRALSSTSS
Procedure: Adherent CHO cells expressing hCRTH2 (Euroscreen, Belgium) were cultured in 225 cm^2 cell culture flasks (Corning, USA) in 30 ml of medium. After two rinses of phosphate buffered saline (PBS), cells were harvested in 10 ml of PBS containing 1 mM EDTA, centrifuged at 500×g for 5 min at 4° C. and frozen at −80° C. The pellet was re-suspended in 50 mM Tris-HCl, pH 7.4, 2 mM EDTA, 250 mM Sucrose, containing protease inhibitor cocktail tablets, (Complete EDTA-free, Roche, Germany) and incubated 30 min at 4° C. Cells were disrupted by nitrogen cavitation (Parr Instruments, USA) at 4° C. (800 p.s.i. for 30 min), and centrifuged at 500×g for 10 min at 4° C. Pellet containing nuclei and cellular debris was discarded and supernatant was centrifuged 60 min at 4° C. at 45000×g. Membrane pellet was re-suspended in storage buffer (10 mM HEPES/KOH pH 7.4, 1 mM EDTA, 250 mM sucrose, protease inhibitor cocktail tablets) using Dounce homogenization and frozen in liquid nitrogen, and stored at 80° C.
Non-specific binding was determined in the presence of 10 μM PGD2 (Cayman, USA). Competing Compounds of Formula (I) were diluted in dimethylsulphoxide so that the total volume of dimethylsulfoxide was kept constant at 1% dimethylsulphoxide (Me2SO). Serial dilutions of […] were prepared and 10 μl each of the compounds of Formula (I) stock solutions were added to the binding assay reagents and incubated for 90 min with agitation at room temperature.

| Structure (SMILES) | IC50 |
| --- | --- |
| CCC(=O)N(Cc1cccc(-c2ccncc2)c1)c1cc(F)cc(-c2nnn[nH]2)c1 [Example 83, N-[3-fluoro-5-(1H-tetrazol-5-yl)phenyl]-N-(3-pyridin-4-ylbenzyl)propanamide] | 25 nM |
| CCC(=O)N(Cc1ccc(C(F)(F)F)cc1)c1cccc(-c2nnn[nH]2)c1 [Example 27, N-[3-(1H-tetrazol-5-yl)phenyl]-N-[4-(trifluoromethyl)benzyl]propanamide] | 129 nM |
| CCC(=O)N(Cc1ccccc1)c1cccc(-c2nnn[nH]2)c1 [Example 30, N-benzyl-N-[3-(1H-tetrazol-5-yl)phenyl]propanamide] | 2250 nM |
| CCC(=O)N(Cc1cccc(-c2sc(C)nc2C)c1)c1cccc(-c2nnn[nH]2)c1 [Example 63, N-[3-(2,4-dimethyl-1,3-thiazol-5-yl)benzyl]-N-[3-(1H-tetrazol-5-yl)phenyl]propanamide] | 235 nM |
| CCCCC(=O)N(Cc1cc2ccccc2o1)c1cc(-c2nnn[nH]2)ccc1F [Example 12, N-(1-benzofuran-2-ylmethyl)-N-[2-fluoro-5-(1H-tetrazol-5-yl)phenyl]pentanamide] | 8.6 nM |
| CCC(=O)N(Cc1ccc(OC(F)(F)F)c(Cl)c1)c1cccc(-c2nnn[nH]2)c1 [Example 45, N-[3-chloro-4-(trifluoromethoxy)benzyl]-N-[3-(1H-tetrazol-5-yl)phenyl]propanamide] | 83 nM |
| CCC(=O)N(Cc1ccc(-c2cn[nH]c2)cc1)c1cccc(-c2nnn[nH]2)c1 [Example 70, N-[4-(1H-pyrazol-4-yl)benzyl]-N-[3-(1H-tetrazol-5-yl)phenyl]propanamide] | 455 nM |
| CCC(=O)N(Cc1ccc(-c2cccc(S(C)(=O)=O)c2)cc1)c1cc(F)cc(-c2nnn[nH]2)c1 [Example 87, N-[3-fluoro-5-(1H-tetrazol-5-yl)phenyl]-N-{[3′-(methylsulfonyl)biphenyl-4-yl]methyl}propanamide] | 185 nM |
| CCCCC(=O)N(Cc1ccsc1)c1cccc(-c2nnn[nH]2)c1 [Example 21, N-[3-(1H-tetrazol-5-yl)phenyl]-N-(3-thienylmethyl)pentanamide] | 759 nM |
| CS(=O)(=O)c1ccc(CN(C(=O)c2ccncc2)c2cc(F)cc(-c3nnn[nH]3)c2)cc1 [Example 106, N-[3-fluoro-5-(1H-tetrazol-5-yl)phenyl]-N-[4-(methylsulfonyl)benzyl]isonicotinamide] | 20 nM |
| CCC(=O)N(Cc1cccc(SC(F)(F)F)c1)c1cc(F)cc(-c2nnn[nH]2)c1 [Example 77, N-[3-fluoro-5-(1H-tetrazol-5-yl)phenyl]-N-{3-[(trifluoromethyl)thio]benzyl}propanamide] | 16 nM |
| CCC(=O)N(Cc1cccc(-c2ccn[nH]2)c1)c1cc(F)cc(-c2nnn[nH]2)c1 [Example 115, N-[3-fluoro-5-(1H-tetrazol-5-yl)phenyl]-N-[3-(1H-pyrazol-5-yl)benzyl]propanamide] | 30 nM |
| CCCCC(=O)N(Cc1cccc(OC(F)(F)F)c1)c1cc(F)cc(-c2nnn[nH]2)c1 [Example 29, N-[3-fluoro-5-(1H-tetrazol-5-yl)phenyl]-N-[3-(trifluoromethoxy)benzyl]pentanamide] | 5.2 nM |
| CCC(=O)N(Cc1ccsc1)c1cccc(-c2nnn[nH]2)c1 [Example 18, N-[3-(1H-tetrazol-5-yl)phenyl]-N-(3-thienylmethyl)propanamide] | 2100 nM |
| CCNS(=O)(=O)c1cccc(-c2ccc(CN(C(=O)CC)c3cc(F)cc(-c4nnn[nH]4)c3)cc2)c1 [Example 86, N-({3′-[(ethylamino)sulfonyl]biphenyl-4-yl}methyl)-N-[3-fluoro-5-(1H-tetrazol-5-yl)phenyl]propanamide] | 170 nM |
| CCC(=O)N(Cc1cccc(C#CCOC)c1)c1cccc(-c2nnn[nH]2)c1 [Example 47, N-[3-(3-methoxyprop-1-yn-1-yl)benzyl]-N-[3-(1H-tetrazol-5-yl)phenyl]propanamide] | 1140 nM |
| CCCC#Cc1cccc(CN(C(=O)CC)c2cccc(-c3nnn[nH]3)c2)c1 [Example 49, N-(3-pent-1-yn-1-ylbenzyl)-N-[3-(1H-tetrazol-5-yl)phenyl]propanamide] | 618 nM |
| CCC(=O)N(Cc1nonc1C)c1cccc(-c2nnn[nH]2)c1 [Example 44, N-[(4-methyl-1,2,5-oxadiazol-3-yl)methyl]-N-[3-(1H-tetrazol-5-yl)phenyl]propanamide] | 2100 nM |

| Structure (SMILES) | IC50 |
| --- | --- |
| CCC(=O)N(Cc1ccc2ccccc2n1)c1cc(F)cc(-c2nnn[nH]2)c1 [Example 80, N-[3-fluoro-5-(1H-tetrazol-5-yl)phenyl]-N-(quinolin-2-ylmethyl)propanamide] | 65 nM |
| CCC(=O)N(Cc1cccc(C)c1)c1cccc(-c2nnn[nH]2)c1 [Example 73, N-(3-methylbenzyl)-N-[3-(1H-tetrazol-5-yl)phenyl]propanamide] | 662 nM |
| CCC(=O)N(Cc1cccc(C(F)(F)F)c1)c1cccc(-c2nnn[nH]2)c1 [Example 28, N-[3-(1H-tetrazol-5-yl)phenyl]-N-[3-(trifluoromethyl)benzyl]propanamide] | 268 nM |
| CCC(=O)N(Cc1cccc(-c2cccnc2)c1)c1cc(F)cc(-c2nnn[nH]2)c1 [Example 81, N-[3-fluoro-5-(1H-tetrazol-5-yl)phenyl]-N-(3-pyridin-3-ylbenzyl)propanamide] | 34 nM |
| CCC(=O)N(Cc1ccc(-c2sc(C)nc2C)cc1)c1cc(F)cc(-c2nnn[nH]2)c1 [Example 119, N-[4-(2,4-dimethyl-1,3-thiazol-5-yl)benzyl]-N-[3-fluoro-5-(1H-tetrazol-5-yl)phenyl]propanamide] | 5.2 nM |
| CCC(=O)N(Cc1ccc(-c2ccncc2)cc1)c1cc(F)cc(-c2nnn[nH]2)c1 [Example 89, N-[3-fluoro-5-(1H-tetrazol-5-yl)phenyl]-N-(4-pyridin-4-ylbenzyl)propanamide] | 57 nM |
| CCCCC(=O)N(Cc1cccs1)c1cccc(-c2nnn[nH]2)c1 [Example 16, N-[3-(1H-tetrazol-5-yl)phenyl]-N-(2-thienylmethyl)pentanamide] | 588 nM |
| CCC(=O)N(Cc1ccc(S(C)(=O)=O)cc1)c1cccc(-c2nnn[nH]2)c1 [Example 65, N-[4-(methylsulfonyl)benzyl]-N-[3-(1H-tetrazol-5-yl)phenyl]propanamide] | 75 nM |
| CCC(=O)N(Cc1ccc(S(=O)(=O)C(F)(F)F)cc1)c1cc(F)cc(-c2nnn[nH]2)c1 [Example 95, N-[3-fluoro-5-(1H-tetrazol-5-yl)phenyl]-N-{4-[(trifluoromethyl)sulfonyl]benzyl}propanamide] | 5.6 nM |
| CCCCC(=O)N(Cc1ccc(O)cc1)c1cccc(-c2nnn[nH]2)c1 [Example 74, N-(4-hydroxybenzyl)-N-[3-(1H-tetrazol-5-yl)phenyl]pentanamide] | 169 nM |
| CCCCC(=O)N(Cc1ccc2ccccc2c1)c1cc(-c2nnn[nH]2)ccc1F [Example 6, N-[2-fluoro-5-(1H-tetrazol-5-yl)phenyl]-N-(2-naphthylmethyl)pentanamide] | 23 nM |
| CCCC(=O)N(Cc1ccc2c(c1)OCCO2)c1cccc(-c2nnn[nH]2)c1 [Example 19, N-(2,3-dihydro-1,4-benzodioxin-6-ylmethyl)-N-[3-(1H-tetrazol-5-yl)phenyl]butanamide] | 15 nM |
| CCC(=O)N(Cc1ccc(Cl)c(OC(F)(F)F)c1)c1cc(F)cc(-c2nnn[nH]2)c1 [Example 76, N-[4-chloro-3-(trifluoromethoxy)benzyl]-N-[3-fluoro-5-(1H-tetrazol-5-yl)phenyl]propanamide] | 18 nM |
| CCC(=O)N(Cc1ccc(-c2cccnc2)cc1)c1cc(F)cc(-c2nnn[nH]2)c1 [Example 90, N-[3-fluoro-5-(1H-tetrazol-5-yl)phenyl]-N-(4-pyridin-3-ylbenzyl)propanamide] | 140 nM |
| CCCCC(=O)N(Cc1cccc(O)c1)c1cccc(-c2nnn[nH]2)c1 [Example 79, N-(3-hydroxybenzyl)-N-[3-(1H-tetrazol-5-yl)phenyl]pentanamide] | 140 nM |
| CCC(=O)N(Cc1ccc(OC)cc1)c1cccc(-c2nnn[nH]2)c1 [Example 26, N-(4-methoxybenzyl)-N-[3-(1H-tetrazol-5-yl)phenyl]propanamide] | 268 nM |
| CCC(=O)N(Cc1cccc(-c2cccnc2)c1)c1cccc(-c2nnn[nH]2)c1 [Example 64, N-(3-pyridin-3-ylbenzyl)-N-[3-(1H-tetrazol-5-yl)phenyl]propanamide] | 403 nM |
| CCC(=O)N(Cc1ccc([S+]([O-])C(F)(F)F)cc1)c1cc(F)cc(-c2nnn[nH]2)c1 (stereo not drawn) [Example 113, N-[3-fluoro-5-(1H-tetrazol-5-yl)phenyl]-N-{4-[(trifluoromethyl)sulfinyl]benzyl}propanamide] | 3.5 nM |
